Experimental data: patent publication US12122782B2, “Crystalline forms of 8-(2-fluorobenzyl)-6-(3-(trifluoromethyl)-1H-1,2,4-triazol-5-yl)imidazo[1,2-a]pyrazine as sGC stimulators” (Tisento Therapeutics Inc., priority 2018, dated 2024)

Assay: Dynamic vapor sorption (DVS) adsorption/desorption
Assay type: physicochemical
Conditions: up to 95% RH; isothermal at 25° C.; water as solvent
Description: The Adsorption/Desorption determination was performed using a Q5000 V3.3 TGA-SA instrument. […] The ramp was isothermal at 25° C. Water was used as the solvent for all DVS analysis. The data was analyzed with the Universal Analysis 2000 software.

moisture picked up (DVS): less than 0.4%
Structure (SMILES): Fc1ccccc1Cc1nc(-c2nc(C(F)(F)F)n[nH]2)cn2ccnc12 [Form A, 8-(2-fluorobenzyl)-6-(3-(trifluoromethyl)-1H-1,2,4-triazol-5-yl)imidazo[1,2-a]pyrazine]
